Measurements: ChEMBL document CHEMBL2157929, “Synthesis and structure-activity relationship of fused-pyrimidine derivatives as a series of novel GPR119 agonists” (Bioorg Med Chem, 2012)
Values after ≈ are worked out from the molar mass of the structure shown.

Columns and labels:
[1] = system: Mus musculus; assay: Antihyperglycemic activity in po dosed ICR mouse assessed as reduction of blood glucose level after 30 mins by oral glucose tolerance test; assay type: functional; details: 0.5 h, read-out: MED
[2] = system: Mus musculus; assay: Antihyperglycemic activity in ICR mouse assessed as reduction of blood glucose level at 1 mg/kg, po after 30 mins by oral glucose tolerance test; assay type: functional; parameters: scale not given: the % may be the effect or the level left
[3] = molecular target: T1, Glucose-dependent insulinotropic receptor (Homo sapiens) (UniProt Q8TDV5); assay: Agonist activity at human recombinant GPR119 expressed in HEK293 cells co-expressing pCRE-Luc at 10 uM after 6 hrs by cAMP reporter assay relative to 2-(2-(4-bromophenyl)-6-methylpyrimidin-4-ylamino)ethanol; assay type: functional, cell-based
T1 sequence (whole entry): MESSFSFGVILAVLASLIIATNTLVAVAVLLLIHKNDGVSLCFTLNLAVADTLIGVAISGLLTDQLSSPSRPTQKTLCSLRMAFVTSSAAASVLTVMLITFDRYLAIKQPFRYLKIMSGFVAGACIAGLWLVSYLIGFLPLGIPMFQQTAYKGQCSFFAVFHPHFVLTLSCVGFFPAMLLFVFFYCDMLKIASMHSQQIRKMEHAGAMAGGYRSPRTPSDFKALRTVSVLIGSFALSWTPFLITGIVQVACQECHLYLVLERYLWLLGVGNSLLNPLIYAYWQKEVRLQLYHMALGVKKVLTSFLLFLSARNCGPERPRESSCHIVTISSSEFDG

[4] = molecular target: T1, Glucose-dependent insulinotropic receptor (Homo sapiens); assay: Agonist activity at human recombinant GPR119 expressed in HEK293 cells co-expressing pCRE-Luc assessed as concentration required to showing equipotent efficacy to 2-(2-(4-bromophenyl)-6-methylpyrimidin-4-ylamino)ethanol after 6 hrs by cAMP reporter assay; assay type: functional, cell-based
[5] = Solubility of compound at pH 6.8 after 20 hrs by precipitation method; assay type: physicochemical; details: buffer
[6] = system: Mus musculus; assay: Antihyperglycemic activity in ICR mouse assessed as reduction of blood glucose level at 3 mg/kg, po after 30 mins by oral glucose tolerance test; assay type: functional; parameters: scale not given: the % may be the effect or the level left
[7] = Clearance in human liver microsomes; assay type: ADME, Microsome; details: read-out: CLH
[8] = system: Mus musculus; assay: Antihyperglycemic activity in ICR mouse assessed as reduction of blood glucose level at 0.1 mg/kg, po after 30 mins by oral glucose tolerance test; assay type: functional; parameters: scale not given: the % may be the effect or the level left
[9] = Inhibition of cytochrome P450 up to 50 uM; assay type: ADME
[10] = system: Mus musculus; assay: Antihyperglycemic activity in ICR mouse assessed as reduction of blood glucose level at 0.3 mg/kg, po after 30 mins by oral glucose tolerance test; assay type: functional; parameters: scale not given: the % may be the effect or the level left

Row | Intrinsic activity [3] | EC [4] | solubility kinetic at 20 h [5] | CLint scaled [7] | inhibition (INH) [9] | Structure (SMILES) | minimal effective dose [1] | Activity [2] | Activity [6] | Activity [8] | Activity [10]
1 | 668% | 28 nM | < 1 µM | – | – | O=S1(=O)Cc2nc(-c3cc(F)c(Cl)cc3F)nc(N3CCOCC3)c2C1 | 1 mg/kg | 30% | – | – | –
2 | 405% | 350 nM | – | – | – | Fc1cc(-c2nc3c(c(N4CCOCC4)n2)CCC3)c(F)cc1Cl | – | – | – | – | –
3 | 737% | 44 nM | > 100 µM | – | – | NC(=O)CN1CCN(c2nc(-c3cc(F)c(Cl)cc3F)nc3c2CS(=O)(=O)C3)CC1 | 3 mg/kg | 17% | – | – | –
4 | 575% | 14 nM | 91 µM (≈ 37.8 µg/mL) | – | – | O=S1(=O)Cc2nc(-c3cc(F)c(Cl)cc3F)nc(N3CCC(O)CC3)c2C1 | 1 mg/kg | 32% | – | – | –
5 | 426% | 57 nM | – | – | – | Fc1cc(-c2nc3c(c(N4CCOCC4)n2)SCC3)c(F)cc1Cl | – | – | – | – | –
6 | 294% | 21 nM | 40 µM (≈ 17.7 µg/mL) | – | – | NC(=O)C1CCN(c2nc(-c3cc(F)c(Cl)cc3F)nc3c2CS(=O)(=O)C3)CC1 | 3 mg/kg | 12% | – | – | –
7 | 528% | 560 nM | – | – | – | O=C(O)C1CCN(c2nc(-c3cc(F)c(Cl)cc3F)nc3c2CS(=O)(=O)C3)CC1 | > 3 mg/kg | – | 15% | – | –
8 | 258% | 970 nM | – | – | – | Fc1cc(-c2nc3c(c(N4CCOCC4)n2)CCS3)c(F)cc1Cl | – | – | – | – | –
9 | 313% | 770 nM | – | – | – | Fc1cc(-c2nc3c(c(N4CCOCC4)n2)CCCC3)c(F)cc1Cl | – | – | – | – | –
10 | 467% | 150 nM | – | – | – | Fc1cc(-c2nc3c(c(N4CCOCC4)n2)CSC3)c(F)cc1Cl | – | – | – | – | –
11 | 501% | 3.9 nM | 16 µM (≈ 6.88 µg/mL) | – | – | O=S1(=O)Cc2nc(-c3cc(F)c(Cl)cc3F)nc(N3CCC(CO)CC3)c2C1 | 0.3 mg/kg | 29% | – | – | –
12 | 292% | 350 nM | > 100 µM | – | – | CN(C)C(=O)C1CCN(c2nc(-c3cc(F)c(Cl)cc3F)nc3c2CS(=O)(=O)C3)CC1 | 1 mg/kg | 32% | – | – | –
13 | 205% | 4100 nM | – | – | – | Fc1cc(-c2nc3c(c(N4CCOCC4)n2)COC3)c(F)cc1Cl | – | – | – | – | –
14 | 457% | 51 nM | 11 µM (≈ 5.03 µg/mL) | – | – | CNC(=O)C1CCN(c2nc(-c3cc(F)c(Cl)cc3F)nc3c2CS(=O)(=O)C3)CC1 | 3 mg/kg | – | – | – | –
15 | 483% | 8.3 nM | 15 µM (≈ 6.85 µg/mL) | 58 mL/min/kg | Not Active | NC(=O)CC1CCN(c2nc(-c3cc(F)c(Cl)cc3F)nc3c2CS(=O)(=O)C3)CC1 | 0.1 mg/kg | 35% | – | 27% | –
16 | 627% | 18 nM | 8 µM (≈ 3.77 µg/mL) | – | – | NC(=O)CCC1CCN(c2nc(-c3cc(F)c(Cl)cc3F)nc3c2CS(=O)(=O)C3)CC1 | 0.3 mg/kg | – | – | – | 30%
17 | 506% | 2.8 nM | 23 µM (≈ 10.2 µg/mL) | – | – | O=S1(=O)Cc2nc(-c3cc(F)c(Cl)cc3F)nc(N3CCC(CCO)CC3)c2C1 | 1 mg/kg | 29% | – | – | –
